How the values were obtained:
Solubility = assay type: physicochemical; settings: prevented its clinical evaluation
[1] = Chemical stability of isocyanates; assay type: physicochemical; settings: for half-life: physiological pH and temperature; for stability (hydrolysis): water-acetone (1:3), 57° C., three-day period, pH 6.0
Protocol: Both have half-lives of greater than 30 minutes at physiological pH and temperature.

[2] = test system: murine leukemia L1210 tumor cells; test: Single-dose treatment against two-day murine leukemia L1210 (increase in median lifespan); assay type: in vivo, CDF1 mice
Protocol: (§1) A single dose of 1-neopentyl-3-(2-chloroethyl)-3-nitrosourea (NCNU) was injected intraperitoneally (ip) in CDF1 mice which had been implanted ip two days earlier with approximately 10×10^5 murine leukemia L1210 tumor cells. The NCNU was dissolved in emulphor EL-620 (polyoxyethylated; GAF Corporation, New York, N.Y.) and raised to the desired volume with 0.85% sodium chloride.
(§2) Effects of Single-Dose Treatment with NCNU Against
Two-Day Murine Leukemia L1210
(§3) experiments are continuing.

various forms of cancer = test: Human studies, patients having advanced stages of various forms of cancer; assay type: in vivo; settings: two 25 mg/kg sc doses or iv, total 50 mg/kg daily
Protocol: Patients having advanced stages of various forms of cancer are treated by subcutaneous injection of two 25 mg/kg doses of NCNU in water or by intravenous administration of 1 milligram NCNU/ml 0.9% saline to provide a total daily dose of 50 mg/kg; a full clinical examination is carried out prior to and after administration. Tumor growth is measured where possible by palpition, X-rays and photography.

[3] = test system: Yancey's lymphocytic leukemia (YLL); test: Single-dose treatment against two-day Yancey's lymphocytic leukemia (increase in median life span); assay type: in vivo, mouse
Protocol: (§4) The effect of NCNU was tested against Yancey's lymphocytic leukemia (YLL) which had been implanted subcutaneously (sc) two days before injection of the drug. The single injection of 0.1 ml of a solution of one spleen of a YLL bearing mouse homogenized in 10 ml Locke's Solution was given either intraperitoneally or subcutaneously.
as §2
Two-Day Yancey's Lymphocytic Leukemia
as §3

[4] = test system: Yancey's lymphocytic leukemia (YLL); test: NCNU against Yancey's lymphocytic leukemia, treatment begun day 2 or 7, several schedules; assay type: in vivo, mouse
Protocol: as §4
The study of Experiment III was conducted with NCNU treatment beginning at 2 or 7 days after implantation of YLL tumors. NCNU injection was ip or sc on a schedule of one time per week for 4 weeks, twice per week for 4 weeks, or a single dose.
Effects of NCNU Against Yancey's
as §3

[5] = Toxicity of single-dose NCNU ip in normal mice (deaths); parameters: species or system CDFl mice; settings: in vivo; for mortality at 192 h: at day 8; for mortality at 24 h: at day 1; for mortality at 216 h: at day 9
Protocol: Toxicity studies were conducted by injecting a single dose of NCNU ip.
Toxicity of NCNU in CDFl Normal Mice

[6] = test system: murine leukemia P388 tumor cells; test: Single-dose treatment against two-day murine leukemia P388 (increase in median lifespan); assay type: in vivo, CDF1 mice
Protocol: as §1
The study of Experiment I was conducted using approximately 5×10^5 murine leukemia P388 tumor cells (0.1 ml of a 1:100 dilution).
as §2
Two-Day Murine Leukemia P388
as §3

CC(C)(C)CNC(=O)N(CC(C)(C)C)N=O
solubility (Solubility): limited solubility

CC(C)(C)CCN=C=O [neohexyl isocyanate]
half-life [1]: > 30 min | stability (hydrolysis) [1]: remarkably stable

CC(C)(C)CN=C=O [neopentyl isocyanate]
half-life [1]: > 30 min | stability (hydrolysis) [1]: remarkably stable

CC(C)(C)CNC(=O)N(CCCl)N=O [NCNU, 1-neopentyl-3-(2-chloroethyl)-3-nitrosourea]
% ILS (increase in median lifespan) ([2]; 25 mg/kg ip): 37.5% | % ILS (increase in median lifespan) ([2]; 50 mg/kg ip): 100% | % ILS (increase in median lifespan) ([2]; 75 mg/kg ip, + = animals not yet all died): ≥ 275% | % ILS (increase in median lifespan) ([2]; 100 mg/kg ip, + = animals not yet all died): ≥ 275% | inflammation (various forms of cancer): Inflammation gradually subsides | tumor size (various forms of cancer): tumor size frequently decreases | clinical improvement (various forms of cancer; within several days): marked clinical improvement within several days | % ILS ([3]; 0.5 mg/mouse ip, single dose (first entry)): 14.3% | % ILS ([3]; 0.5 mg/mouse ip, single dose (second entry)): 6.7% | % ILS ([3]; 0.5 mg/mouse sc, single dose (first entry)): 35.7% | % ILS ([3]; 0.5 mg/mouse sc, single dose (second entry)): 13.3% | % ILS ([3]; 1.0 mg/mouse ip, single dose (first entry)): 64.3% | % ILS ([3]; 1.0 mg/mouse ip, single dose (second entry)): 33.3% | % ILS ([3]; 1.0 mg/mouse sc, single dose (first entry)): 64.3% | % ILS ([3]; 1.0 mg/mouse sc, single dose (second entry)): 20.0% | % ILS ([3]; 2.0 mg/mouse ip, single dose, + = animals not yet all died): ≥ 264% | % ILS ([3]; 2.0 mg/mouse sc, single dose): 78.0% | % ILS ([3]; 25 mg/kg ip, single dose): 13.3% | % ILS ([3]; 25 mg/kg sc, single dose): 6.6% | % ILS ([3]; 50 mg/kg ip, single dose): 60.0% | % ILS ([3]; 50 mg/kg sc, single dose): 60.0% | % ILS ([3]; 75 mg/kg ip, single dose): 66.6% | % ILS ([3]; 75 mg/kg sc, single dose): 73.3% | % ILS ([4]; 0.5 mg/mouse ip, 1x/wk for 4 wks, begun day 2): 28.6% | % ILS ([4]; 0.5 mg/mouse ip, once, begun day 7): 6.7% | % ILS ([4]; 0.5 mg/mouse sc, 1x/wk for 4 wks, begun day 2, + = animals not yet all died): ≥ 114.3% | % ILS ([4]; 0.5 mg/mouse sc, once, begun day 7): 6.7% | % ILS ([4]; 1.0 mg/mouse ip, 1x/wk for 4 wks, begun day 2): 178.6% | % ILS ([4]; 1.0 mg/mouse ip, once, begun day 7): 66.6% | % ILS ([4]; 1.0 mg/mouse sc, 1x/wk for 4 wks, begun day 2, + = animals not yet all died): ≥ 207.1% | % ILS ([4]; 1.0 mg/mouse sc, once, begun day 7): 66.6% | % ILS ([4]; 2.0 mg/mouse ip, 1x/wk for 4 wks, begun day 2): 14.3% | % ILS ([4]; 2.0 mg/mouse sc, 1x/wk for 4 wks, begun day 2, + = animals not yet all died): ≥ 264% | % ILS ([4]; 25 mg/kg ip, 1x/wk for 4 wks, begun day 2, + = animals not yet all died): ≥ 100% | % ILS ([4]; 25 mg/kg ip, 2x/wk for 4 wks, begun day 2, + = animals not yet all died): ≥ 100% | % ILS ([4]; 25 mg/kg sc, 1x/wk for 4 wks, begun day 2, + = animals not yet all died): ≥ 100% | % ILS ([4]; 25 mg/kg sc, 2x/wk for 4 wks, begun day 2, + = animals not yet all died): ≥ 100% | % ILS ([4]; 50 mg/kg ip, 1x/wk for 4 wks, begun day 2, + = animals not yet all died): ≥ 100% | % ILS ([4]; 50 mg/kg ip, 2x/wk for 4 wks, begun day 2, + = animals not yet all died): ≥ 100% | % ILS ([4]; 50 mg/kg sc, 1x/wk for 4 wks, begun day 2, + = animals not yet all died): ≥ 100% | % ILS ([4]; 50 mg/kg sc, 2x/wk for 4 wks, begun day 2, + = animals not yet all died): ≥ 100% | % ILS ([4]; 75 mg/kg ip, 1x/wk for 4 wks, begun day 2, + = animals not yet all died): ≥ 100% | % ILS ([4]; 75 mg/kg ip, 2x/wk for 4 wks, begun day 2): 66.6% | % ILS ([4]; 75 mg/kg sc, 1x/wk for 4 wks, begun day 2, + = animals not yet all died): ≥ 100% | % ILS ([4]; 75 mg/kg sc, 2x/wk for 4 wks, begun day 2): 0% | mortality ([5]; 1.0 mg/mouse ip): 0% | mortality at 312 h ([5]; 2.0 mg/mouse ip, at day 13, others survived): 60% | mortality at 240 h ([5]; 4.0 mg/mouse ip, at day 10): 100% | mortality at 192 h ([5]; 8.0 mg/mouse ip): 100% | mortality at 96 h ([5]; 16.0 mg/mouse ip, at day 4): 100% | mortality at 24 h ([5]; 20.0 mg/mouse ip): 100% | mortality at 24 h ([5]; 32.0 mg/mouse ip): 100% | mortality at 312 h ([5]; mouse, 100 mg/kg ip, at day 13): 100% | mortality at 264 h ([5]; mouse, 150 mg/kg ip, at day 11): 100% | mortality at 216 h ([5]; mouse, 200 mg/kg ip): 100% | mortality at 216 h ([5]; mouse, 225 mg/kg ip): 100% | mortality at 192 h ([5]; mouse, 250 mg/kg ip): 100% | mortality at 120 h ([5]; mouse, 500 mg/kg ip, at day 5): 100% | mortality at 48 h ([5]; mouse, 750 mg/kg ip, at day 2): 100% | mortality at 24 h ([5]; mouse, 1000 mg/kg ip): 100% | % ILS ([6]; 0.5 mg/mouse): 41.5% | % ILS ([6]; 1.0 mg/mouse): 91.7% | % ILS ([6]; 2.0 mg/mouse, + = animals not yet all died): ≥ 483%

— patent US4423076A, “1-Branched-alkyl-3-(2-haloethyl)-3-nitrosoureas as novel antitumor agents” (National Foundation for Cancer Research, Inc., priority 1979, dated 1983)
